Measured values: US20230255953A1, “USE OF ROLUPERIDONE IN PREVENTING RELAPSE IN SCHIZOPHRENIA PATIENTS” (Minerva Neurosciences, Inc., priority 2022, published 2023)

Test system: patients with negative symptoms of schizophrenia
Assay: Integrated analysis of Studies #1 and #2 (pooled ITT): PANSS-derived scores (NSFS, total, positive and negative subscales), DB, OL and whole study
Type: in vivo, human
Parameters: key to NSFS Score change from Baseline, Median: change from Baseline in PANSS NSFS points; higher score = more severe
Conditions: for NSFS Score change from Baseline, LS mean (SE) / NSFS Score change from Baseline, Mean (SD) / NSFS Score change from Baseline, Median / NSFS Score, Difference (95% CI) in LS mean (vs placebo) / PANSS Negative Subscale Score change from Baseline, LS mean (SE) / PANSS Negative Subscale Score change from Baseline, Mean (SD) / PANSS Negative Subscale Score change from Baseline, Median / PANSS Negative Subscale Score, Difference (95% CI) in LS mean (vs placebo) / PANSS Total Score change from Baseline, LS mean (SE) / PANSS Total Score change from Baseline, Mean (SD) / PANSS Total Score change from Baseline, Median / PANSS Total Score, Difference (95% CI) in LS mean (vs placebo): DB
Experimental: The primary integrated analysis of the efficacy of Roluperidone compared with placebo for the treatment of negative symptoms of schizophrenia is based on the change from Baseline in the PANSS Marder's negative symptoms factor score (in this document referred to as NSFS) to Week 12. Efficacy is also supported by the analysis of change from Baseline in the PSP Total score and the CGI-S to Week 12.
The PANSS was assessed at the time points described in Table 4.
The PANSS-derived endpoints used in these studies and the integrated analyses are described in Table 5A and a summary of the individual PANSS items used by physicians and clinicians to measure the severity of the symptoms in a schizophrenia patient is provided in Table 5B. The scale is divided into three parts, a positive scale, which provides a “PANSS positive subscore”, a negative scale, which provides a “PANSS negative subscore”, and general psychopathology scale. The sum of these three parts provides a PANSS total score, which ranges from 30 to 210 (where higher scores indicate more severe symptoms). (See Kay, S. R., et al. “The positive and negative syndrome scale (PANSS) for schizophrenia,” Schizophr Bulletin, 13(2), 261-276 (1987) and Gopal, S., et al. “Improvement of Negative Symptoms in Schizophrenia with Paliperidone Palmitate 1-Month and 3-Month Long-Acting Injectables: Results from a Phase 3 Non-Inferiority Study” Neuropsychiatric Disease and Treatment, 681-690, DOI: 10.2147/NDT.5226296, both of which are incorporated by reference.)
The Efficacy data from Study Nos. 1 and 2 were pooled. The majority of patients in the pooled ITT population completed the DB period (502 patients overall, 66.3%), with similar rates in each treatment group (placebo: 69.8%, 32 mg Roluperidone: 65.3%, and 64 mg Roluperidone: 63.8%) (Table 12). The majority (62.7%) of those who completed the DB period entered the OL period. The most common reason for discontinuation during the DB period among patients overall was withdrawal of consent (15.6%), followed by adverse events (7.3%) and lack of efficacy (5.4%) (Table 12). […] Approximately twice as many patients in the Roluperidone groups (32 mg: 8.5%; 64 mg: 9.1%) discontinued due to adverse events compared with patients in the placebo group (4.3%). More patients in the placebo group discontinued due to lack of efficacy (6.7%) than in the Roluperidone groups (32 mg: 4.4%; 64 mg: 5.1%). The low number of patients who discontinued due to lack of efficacy or withdrawal of consent probably reflects a low level of worsening of positive symptoms.
The integrated analysis supporting the efficacy of Roluperidone as a treatment for the negative symptoms of schizophrenia in adults is presented below.

1H-Isoindol-1-one,2-[ [1-[2-(4-fluorophenyl)-2-oxoethyl]-4-piperidinyl]methyl]-2,3-dihydro-, hydrochloride, hydrate (1:1:2) [Roluperidone]
PANSS positive subscale score, LS mean change from Baseline compared with placebo (32 mg, Week 12, pooled ITT): −0.3
PANSS total score, LS mean change from Baseline compared with placebo (32 mg, Week 12, pooled ITT): −1.9
Patients with 20% Reduction in NSFS at Week 12, percent (32 mg, responder analysis): 31%
Patients with 20% Reduction in PANSS Total Score at Week 12, percent (32 mg, responder analysis): 14%
Number of Patients with 20% Reduction in PANSS Total Score at Week 12 (32 mg, responder analysis, n/N): 24/167
Number of Patients with 20% reduction in NSFS at Week 12 (32 mg, responder analysis, n/N): 51/167
NSFS Score change from Baseline, LS mean (SE) (64 mg, Week 2, pooled ITT): −1.4 (0.15)
NSFS Score change from Baseline, Mean (SD) (64 mg, Week 2, pooled ITT): −1.4 (2.34)
NSFS Score change from Baseline, Median (64 mg, Week 2, pooled ITT): −1.0
NSFS Score, Difference (95% CI) in LS mean (vs placebo) (64 mg, Week 2, pooled ITT): −0.4 (−0.8, −0.0)
PANSS Negative Subscale Score change from Baseline, LS mean (SE) (64 mg, Week 2, pooled ITT): −1.4 (0.14)
PANSS Negative Subscale Score change from Baseline, Mean (SD) (64 mg, Week 2, pooled ITT): −1.4 (2.28)
PANSS Negative Subscale Score change from Baseline, Median (64 mg, Week 2, pooled ITT): −1.0
PANSS Negative Subscale Score, Difference (95% CI) in LS mean (vs placebo) (64 mg, Week 2, pooled ITT): −0.4
PANSS Total Score change from Baseline, LS mean (SE) (64 mg, Week 2, pooled ITT): −2.2 (0.44)
PANSS Total Score change from Baseline, Mean (SD) (64 mg, Week 2, pooled ITT): −2.2 (7.15)
PANSS Total Score change from Baseline, Median (64 mg, Week 2, pooled ITT): −2.0
PANSS Total Score, Difference (95% CI) in LS mean (vs placebo) (64 mg, Week 2, pooled ITT): −0.9
PANSS Positive Subscale Score change from Baseline, LS mean (SE) (64 mg, Week 2, pooled ITT): −0.1 (0.17)
PANSS Positive Subscale Score change from Baseline, Mean (SD) (64 mg, Week 2, pooled ITT): −0.1 (2.85)
PANSS Positive Subscale Score change from Baseline, Median (64 mg, Week 2, pooled ITT): 0.0
PANSS Positive Subscale Score, Difference (95% CI) in LS mean (vs placebo) (64 mg, Week 2, pooled ITT): −0.1
NSFS Score change from Baseline, LS mean (SE) (64 mg, Week 4, pooled ITT): −2.5 (0.19)
NSFS Score change from Baseline, Mean (SD) (64 mg, Week 4, pooled ITT): −2.6 (2.73)
NSFS Score change from Baseline, Median (64 mg, Week 4, pooled ITT): −2.0
NSFS Score, Difference (95% CI) in LS mean (vs placebo) (64 mg, Week 4, pooled ITT): −1.1
PANSS Negative Subscale Score change from Baseline, LS mean (SE) (64 mg, Week 4, pooled ITT): −2.6 (0.19)
PANSS Negative Subscale Score change from Baseline, Mean (SD) (64 mg, Week 4, pooled ITT): −2.8 (2.82)
PANSS Negative Subscale Score change from Baseline, Median (64 mg, Week 4, pooled ITT): −2.0
PANSS Negative Subscale Score, Difference (95% CI) in LS mean (vs placebo) (64 mg, Week 4, pooled ITT): −1.2
PANSS Total Score change from Baseline, LS mean (SE) (64 mg, Week 4, pooled ITT): −4.5 (0.52)
PANSS Total Score change from Baseline, Mean (SD) (64 mg, Week 4, pooled ITT): −5.1 (7.16)
PANSS Total Score change from Baseline, Median (64 mg, Week 4, pooled ITT): −5.0
PANSS Total Score, Difference (95% CI) in LS mean (vs placebo) (64 mg, Week 4, pooled ITT): −2.5
PANSS Positive Subscale Score change from Baseline, LS mean (SE) (64 mg, Week 4, pooled ITT): −0.2 (0.18)
PANSS Positive Subscale Score change from Baseline, Mean (SD) (64 mg, Week 4, pooled ITT): −0.4 (2.49)
PANSS Positive Subscale Score change from Baseline, Median (64 mg, Week 4, pooled ITT): −1.0
PANSS Positive Subscale Score, Difference (95% CI) in LS mean (vs placebo) (64 mg, Week 4, pooled ITT): −0.5
NSFS Score change from Baseline, LS mean (SE) (64 mg, Week 8, pooled ITT): −3.4 (0.23)
NSFS Score change from Baseline, Mean (SD) (64 mg, Week 8, pooled ITT): −3.6 (3.28)
NSFS Score change from Baseline, Median (64 mg, Week 8, pooled ITT): −3.0
NSFS Score, Difference (95% CI) in LS mean (vs placebo) (64 mg, Week 8, pooled ITT): −1.2
PANSS Negative Subscale Score change from Baseline, LS mean (SE) (64 mg, Week 8, pooled ITT): −3.7 (0.23)
PANSS Negative Subscale Score change from Baseline, Mean (SD) (64 mg, Week 8, pooled ITT): −3.9 (3.27)
PANSS Negative Subscale Score change from Baseline, Median (64 mg, Week 8, pooled ITT): −3.0
PANSS Negative Subscale Score, Difference (95% CI) in LS mean (vs placebo) (64 mg, Week 8, pooled ITT): −1.3
PANSS Total Score change from Baseline, LS mean (SE) (64 mg, Week 8, pooled ITT): −5.7 (0.65)
PANSS Total Score change from Baseline, Mean (SD) (64 mg, Week 8, pooled ITT): −6.8 (8.79)
PANSS Total Score change from Baseline, Median (64 mg, Week 8, pooled ITT): −6.0
PANSS Total Score, Difference (95% CI) in LS mean (vs placebo) (64 mg, Week 8, pooled ITT): −2.5
PANSS Positive Subscale Score change from Baseline, LS mean (SE) (64 mg, Week 8, pooled ITT): −0.3 (0.20)
PANSS Positive Subscale Score change from Baseline, Mean (SD) (64 mg, Week 8, pooled ITT): −0.6 (2.61)
PANSS Positive Subscale Score change from Baseline, Median (64 mg, Week 8, pooled ITT): −1.0
PANSS Positive Subscale Score, Difference (95% CI) in LS mean (vs placebo) (64 mg, Week 8, pooled ITT): −0.5
NSFS Score change from Baseline, LS mean (SE) (64 mg, Week 12, pooled ITT): −3.9 (0.26)
NSFS Score change from Baseline, Mean (SD) (64 mg, Week 12, pooled ITT): −4.1 (3.64)
NSFS Score change from Baseline, Median (64 mg, Week 12, pooled ITT): −3.5
NSFS Score, Difference (95% CI) in LS mean (vs placebo) (64 mg, Week 12, pooled ITT): −1.3
PANSS Negative Subscale Score change from Baseline, LS mean (SE) (64 mg, Week 12, pooled ITT): −4.1 (0.27)
PANSS Negative Subscale Score change from Baseline, Mean (SD) (64 mg, Week 12, pooled ITT): −4.4 (3.75)
PANSS Negative Subscale Score change from Baseline, Median (64 mg, Week 12, pooled ITT): −4.0
PANSS Negative Subscale Score, Difference (95% CI) in LS mean (vs placebo) (64 mg, Week 12, pooled ITT): −1.3
PANSS Total Score change from Baseline, LS mean (SE) (64 mg, Week 12, pooled ITT): −6.3 (0.70)
PANSS Total Score change from Baseline, Mean (SD) (64 mg, Week 12, pooled ITT): −7.7 (9.43)
PANSS Total Score change from Baseline, Median (64 mg, Week 12, pooled ITT): −7.0
PANSS Total Score, Difference (95% CI) in LS mean (vs placebo) (64 mg, Week 12, pooled ITT): −2.8
NSFS Emotional Experience Score, Change from Baseline (LS Means [SEM]) (64 mg, Week 12, ITT): −1.6 (0.13)
NSFS Emotional Expression Score, Change from Baseline (LS Means [SEM]) (64 mg, Week 12, ITT): −2.3 (0.16)
NSFS, Change from Baseline (LS Means [SEM]) (64 mg, Week 12, ITT): −3.9 (0.26)
PANSS General Psychopathology Subscale, Change from Baseline (LS Means [SEM]) (64 mg, Week 12, ITT): −2.2 (0.37)
PANSS Negative Symptoms Subscale, Change from Baseline (LS Means [SEM]) (64 mg, Week 12, ITT): −4.1 (0.27)
PANSS Positive Symptoms Subscale, Change from Baseline (LS Means [SEM]) (64 mg, Week 12, ITT): −0.2 (0.21)
PANSS Total Score, Change from Baseline (LS Means [SEM]) (64 mg, Week 12, ITT): −6.3 (0.70)
NSFS, LS mean change from Baseline compared with placebo (64 mg, Week 12, normal BMI (<25 kg/m^2) subgroup, pooled ITT): −1.7
NSFS, LS mean change from Baseline compared with placebo (64 mg, Week 12, obese (≥30 kg/m^2) subgroup, pooled ITT): −0.1
NSFS, LS mean change from Baseline compared with placebo (64 mg, Week 12, overweight BMI (25 to <30 kg/m^2) subgroup, pooled ITT): −1.4
Patients with high improvement in NSFS (magnitude of change >8) (64 mg, Week 12, pooled): 13%
